The record followed here is patent US20230143604A1, “QW DOSING OF GIP RECEPTOR AGONIST PEPTIDE COMPOUNDS AND USES THEREOF” (TAKEDA PHARMACEUTICAL COMPANY LIMITED, priority 2020, published 2023).

Starred links: 1 amine or outer side, 2 acyl side, 3 side chain; linkers in the order of their positions; H or OH if unused. Non-standard residues stand in square brackets, D forms with d. Residues, ends and D or L forms follow the SMILES beside them. Groups on a side chain read outwards from the residue. No end group written: not given here. *: point of attachment. C18 diacid = O=C(O)CCCCCCCCCCCCCCCCC(=O)*; γGlu = O=C(O)[C@H](CCC(=O)[*:2])N[*:1]; NMeY = CN[C@@H](Cc1ccc(O)cc1)C(=O)O; AEEA = NCCOCCOCC(=O)O; Aib = CC(C)(N)C(=O)O

Data set [1] in a line: Serum half-life and percentage remaining at 48 hours. The class given is in vitro ADME. Particulars: both sexes, pH 7.4, human plasma, 500 nM peptide, 37° C.; for half-life at 500 nM: read-out: Serum t1/2 (converted); for remaining at 48 h, 500 nM: plasma (sodium heparin). On the procedure:
Human plasma (mixed gender: sodium heparin is used as anti-coagulant; pre-adjusted to pH 7.4—NB alternative species may be used) is spiked with each test peptide (500 nM) and incubated·cn=3) at 37° C. for 48 hours in a 5% CO2 environment. Aliquots are taken at 0. 1, 2, 4, 7, 24 and […] and pH adjusted to pH 3 with 20% formic acid prior to analysis. Appropriate positive control compounds will be incubated in parallel, in addition to a no plasma control, sampled at 0 and 8 hours. All samples will be treated with ice-cold acetonitrile/methanol (4:1 (v/v)) containing internal standard prior to centrifugation at 2000 g and 4° C. for 10 minutes and subjected to LC-MS/MS analysis.
The samples are analyzed by LC-MS/MS using a 6500 (or equivalent) triple quadrupole mass spectrometer (AB Sciex) coupled to an appropriate Liquid Chromatography (LC) system. Protein binding and stability values are determined via peak area ratios using multiple reaction monitoring (MRM) parameters following compound optimisation. Multiple reaction monitoring (MRM) is a highly sensitive method of targeted mass spectrometry (MS) that can be used to selectively detect and quantify peptides based on the screening of specified precursor peptide-to-fragment ion transitions.

The nature of data set [2]: Solubility in phosphate buffer pH 7.4. The essentials: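 3 mg of peptide treated with 100 μL portions of 200 mM phosphate buffer pH 7.4, sonicating/vortexing up to 1 min, with further buffer added until fully dissolved. Solubility then quantified by HPLC.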
For data set [3], the target named is T1, full-length human GIPR with an N-terminal FLAG tag, overexpressed on HEK-293T cells (human, UniProt P48546 22-466).
T1 sequence (looked up): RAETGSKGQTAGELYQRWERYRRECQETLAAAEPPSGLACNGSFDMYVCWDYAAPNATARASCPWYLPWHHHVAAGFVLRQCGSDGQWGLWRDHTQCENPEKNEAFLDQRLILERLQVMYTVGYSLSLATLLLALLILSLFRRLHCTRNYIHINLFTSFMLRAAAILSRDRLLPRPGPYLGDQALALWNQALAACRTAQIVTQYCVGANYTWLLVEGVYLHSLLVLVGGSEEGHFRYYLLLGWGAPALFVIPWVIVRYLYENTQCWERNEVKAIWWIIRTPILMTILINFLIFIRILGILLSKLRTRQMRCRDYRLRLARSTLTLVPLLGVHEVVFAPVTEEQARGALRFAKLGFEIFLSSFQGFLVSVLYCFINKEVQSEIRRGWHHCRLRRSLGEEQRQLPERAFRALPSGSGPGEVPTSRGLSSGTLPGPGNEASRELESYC
The data set is described as follows: cell-based or functional assay.

Data set [4] has as its target full-length human GLP-1R with an N-terminal FLAG tag, overexpressed on HEK-293T cells (human, UniProt P43220 24-463). The data set is described as follows: cell-based or functional assay.
A further data set concerns the target dog plasma proteins. Description: plasma protein binding, ultracentrifugation, LC-MS/MS.
For a further data set, the target named is human plasma proteins. Described as above.
The mark [5] stands for this setting: pH 7.4, aqueous buffer, pH 7.4 Phosphate Buffer - Solubility, 200 mM Phosphate buffer pH 7.4.
[6] abbreviates: pH 7.4, solubility in phosphate buffer at pH 7.4, 200 mM phosphate buffer pH 7.4.

For the molecule `CC[C@H](C)[C@H](NC(=O)[C@H](CO)NC(=O)[C@H](Cc1ccc(O)cc1)NC(=O)[C@H](CC(=O)O)NC(=O)[C@H](CO)NC(=O)[C@@H](NC(=O)[C@H](Cc1ccccc1)NC(=O)[C@@H](NC(=O)CNC(=O)[C@H](CCC(=O)O)NC(=O)C(C)(C)NC(=O)[C@H](Cc1ccc(O)cc1)NC)[C@@H](C)O)[C@@H](C)CC)C(=O)N[C@@H](C)C(=O)N[C@@H](CCCCNC(=O)COCCOCCNC(=O)COCCOCCNC(=O)CC[C@H](NC(=O)CCCCCCCCCCCCCCCCC(=O)O)C(=O)O)C(=O)N[C@@H](CC(=O)O)C(=O)N[C@@H](CCCNC(=N)N)C(=O)N[C@H](C(=O)N[C@@H](Cc1c[nH]cn1)C(=O)N[C@@H](CCC(N)=O)C(=O)N[C@@H](CCC(N)=O)C(=O)N[C@@H](CC(N)=O)C(=O)N[C@@H](Cc1ccccc1)C(=O)N[C@H](C(=O)N[C@@H](CC(N)=O)C(=O)N[C@@H](Cc1c[nH]c2ccccc12)C(=O)N[C@@H](CC(C)C)C(=O)N[C@@H](CC(C)C)C(=O)N[C@@H](C)C(=O)N[C@@H](CCC(N)=O)C(=O)N[C@@H](CCCNC(=N)N)C(=O)N1CCC[C@H]1C(=O)N[C@@H](CO)C(=O)N[C@@H](CO)C(=O)NCC(=O)N[C@@H](C)C(=O)N1CCC[C@H]1C(=O)N1CCC[C@H]1C(=O)N1CCC[C@H]1C(=O)N[C@@H](CO)C(N)=O)C(C)C)[C@@H](C)CC` [Compound 3] (H-[NMeY][Aib]EGTFISDYSIAK([AEEA-AEEA-γGlu-C18 diacid])DRIHQQNFVNWLLAQRPSSGAPPPS-NH2), in data set [1], the half-life at 500 nM is 15.9 h and the amount remaining (as a rule, what is left of the initial amount, in per cent) at 48 h, 500 nM was found to be 13%. In addition, in data set [2] (setting [5]), the solubility (in general, the dissolved amount per volume that the medium holds) is at least 30 mg/mL. This molecule also gave a solubility in data set [2] (setting [6]) of at least 15 mg/mL.
The matching figures for `CC[C@H](C)[C@H](NC(=O)[C@H](CO)NC(=O)[C@H](Cc1ccc(O)cc1)NC(=O)[C@H](CC(=O)O)NC(=O)[C@H](CO)NC(=O)[C@@H](NC(=O)[C@H](Cc1ccccc1)NC(=O)[C@@H](NC(=O)CNC(=O)[C@H](CCC(=O)O)NC(=O)C(C)(C)NC(=O)[C@H](Cc1ccc(O)cc1)NC)[C@@H](C)O)[C@@H](C)CC)C(=O)N[C@@H](C)C(=O)N[C@@H](CC(C)C)C(=O)N[C@@H](CC(=O)O)C(=O)N[C@@H](CCCNC(=N)N)C(=O)N[C@H](C(=O)N[C@@H](Cc1c[nH]cn1)C(=O)N[C@@H](CCC(N)=O)C(=O)NC(C)(C)C(=O)N[C@@H](CC(N)=O)C(=O)N[C@@H](Cc1ccccc1)C(=O)N[C@H](C(=O)N[C@@H](CC(N)=O)C(=O)N[C@@H](Cc1c[nH]c2ccccc12)C(=O)N[C@@H](CC(C)C)C(=O)N[C@@H](CC(C)C)C(=O)N[C@@H](C)C(=O)N[C@@H](CCC(N)=O)C(=O)N[C@@H](CCCCNC(=O)COCCOCCNC(=O)COCCOCCNC(=O)CC[C@H](NC(=O)CCCCCCCCCCCCCCCCC(=O)O)C(=O)O)C(=O)N1CCC[C@H]1C(=O)N[C@@H](CO)C(=O)N[C@@H](CO)C(=O)NCC(=O)N[C@@H](C)C(=O)N1CCC[C@H]1C(=O)N1CCC[C@H]1C(=O)N1CCC[C@H]1C(=O)N[C@@H](CO)C(N)=O)C(C)C)[C@@H](C)CC` [Compound 2] (H-[NMeY][Aib]EGTFISDYSIALDRIHQ[Aib]NFVNWLLAQK([AEEA-AEEA-γGlu-C18 diacid])PSSGAPPPS-NH2): 24.1 h, 27%, at least 30 mg/mL and at least 15 mg/mL.
As for [NMeY][Aib]EGTFISDYSIALDR[Aib]K([AEEA-AEEA-γGlu-γGlu-C18 diacid])Q[Aib]NFVNWLLAQSPSSGAPPPS-NH2 [Compound No. 293], the “Human GIPR cAMP EC50, HEK293T” value in data set [3] was determined as 0.0004 nM. In data set [4], the “Human GLP1R cAMP EC50, HEK293T” value stood at 129 nM. In the data set with dog plasma proteins, this molecule gave a Dog PPB (FUplasma), fraction unbound in plasma (fraction unbound) of under 0.002. This molecule displayed a Human PPB (FUplasma), fraction unbound in plasma (fraction unbound) in the data set with human plasma proteins of under 0.002.
